Measurements: patent US12605471B2 (The General Hospital Corporation, priority 2013, dated 2026)

What was measured:
[1] = system: Aβ fibril; settings: cited from earlier work
[2] = Biodistribution of F-18 cromolyn in normal mice after intravenous injection; assay type: in vivo; settings: for Tissue Distribution, blood / Tissue Distribution, brain / Tissue Distribution, heart / Tissue Distribution, liver / Tissue Distribution, lung: normal mice, i.v. tail vein
Procedure: At 5 min, organ activity (DPG) was: heart: 1.09%, blood: 3.3%, lung: 1.90%, liver: 7.69%, and brain: 0.15%. […] The data is provided in Table 1 below and in bar graph format in FIG. 4.

[3] = as above; assay type: in vivo; settings: i.v. tail vein
[4] = Brain concentration of PIB analog TS3124; settings: in vivo
[5] = target: Aβ (1-40) peptides (Homo sapiens, UniProt P05067); test: UV aggregation assay; assay type: biochemical
Sequence of Aβ (1-40) peptides (P05067 672-711 limits assumed): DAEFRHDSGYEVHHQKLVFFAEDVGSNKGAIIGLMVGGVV
Procedure: Aβ peptide aggregation and the impact of drugs to slow or prevent Aβ aggregation was measured by a UV absorbance assay (Findeis, 1999). Aβ (1-40) peptides, at 50 μM, were mixed with 50 μM drug in assay buffer and the plate was incubated at ambient temperature on a plate reader. The UV absorbance was monitored at 540 nm over a 2-3 h period.
Polymerization of Aβ-monomer peptides into clusters of trimers and tetramers initiates the Aβ aggregation process into protofibrils and then into fibrils that form amyloid plaques.

[6] = target: Aβ peptide (Homo sapiens, UniProt P05067); test: Aβ aggregation by thioflavin T assay; assay type: biochemical
Sequence of Aβ peptide (P05067 672-711 limits assumed): as above
Procedure: One of the most routinely used approaches to monitor Aβ polymerization is the thioflavin T binding assay. […] Aβ peptide at 5 μM was mixed with 10 μM thioflavin T with drug at different concentrations.

[7] = human, oral inhalation, high inspiratory rates; cited from earlier work
[8] = system: atherosclerotic plaque; settings: mice; cited from earlier work
[9] = system: interleukin-6 (IL-6); settings: mice, stress-related coronary inflammation; cited from earlier work

For Fisetin, the “Effects on Aβ fibril formation” value [1] is given as “Inhibitory”.
In the case of `O=c1cc(-c2ccc(O)c(O)c2)oc2cc(O)cc(O)c12` [Luteolin], the “Effects on Aβ fibril formation” value [1] is given as “Inhibitory”.
In the case of `O=c1c(O)c(-c2ccc(O)c(O)c2)oc2ccccc12` [3,3′,4′-Trihydroxyflavone], the “Effects on Aβ fibril formation” value [1] is given as “Inhibitory”.
In the case of `O=C(O)c1cc(=O)c2c(OCC([18F])COc3cccc4oc(C(=O)O)cc(=O)c34)cccc2o1` [F-18 Cromolyn, 5,5′-(2-[18F]fluoropropane-1,3-diyl)bis(oxy)bis(4-oxo-4H-chromene-2-carboxylic acid)], the “brain uptake (accumulation)” value ([2]; mice, intravenous injection, 5, 30 or 60 minute, little or no washout, FIG. 4) is reported as 1%, the “Tissue Distribution, blood” value ([2]; 5 min) is reported as 3.31 ± 1.37 % Dose/gram and the “Tissue Distribution, brain” value ([2]; 5 min) is reported as 0.15 ± 0.37 % Dose/gram. For the same molecule, the “Tissue Distribution, heart” value ([2]; 5 min) was 1.09 ± 0.13 % Dose/gram, the “Tissue Distribution, liver” value ([2]; 5 min) was 7.69 ± 0.41 % Dose/gram and the “Tissue Distribution, lung” value ([2]; 5 min) was 1.90 ± 1.04 % Dose/gram. For the same molecule, the “Tissue Distribution, blood” value ([2]; 5 min, listed as F-18 cromolyn) was 3.3 % Dose/gram, the “Tissue Distribution, brain” value ([2]; 5 min, listed as F-18 cromolyn) was 0.15 % Dose/gram and the “Tissue Distribution, heart” value ([2]; 5 min, listed as F-18 cromolyn) was 1.09 % Dose/gram. The “Tissue Distribution, liver” value ([2]; 5 min, listed as F-18 cromolyn) was 7.69 % Dose/gram, the “Tissue Distribution, lung” value ([2]; 5 min, listed as F-18 cromolyn) was 1.90 % Dose/gram and the “Tissue Distribution, blood” value ([2]; 30 min) was 0.92 ± 0.20 % Dose/gram. The “Tissue Distribution, brain” value ([2]; 30 min) was 0.04 ± 0.007 % Dose/gram, the “Tissue Distribution, heart” value ([2]; 30 min) was 0.32 ± 0.03 % Dose/gram and the “Tissue Distribution, blood” value ([2]; 60 min) was 0.44 ± 0.15 % Dose/gram. The “Tissue Distribution, heart” value ([2]; 60 min) was 0.18 ± 0.07 % Dose/gram, the “Tissue Distribution, liver” value ([2]; 60 min) was 1.76 ± 0.74 % Dose/gram and the “Tissue Distribution, liver” value ([3]; 30 min) was 3.11 ± 0.36 % Dose/gram. The “Tissue Distribution, lung” value ([3]; 30 min) was 0.62 ± 0.19 % Dose/gram, the “Tissue Distribution, brain” value ([3]; 60 min) was 0.03 ± 0.004 % Dose/gram and the “Tissue Distribution, heart” value ([3]; 60 min) was 0.18 % Dose/gram. The “Tissue Distribution, lung” value ([3]; 60 min) was 0.29 ± 0.21 % Dose/gram.
In the case of `CC(F)CNc1ccc(-c2nc3ccc(O)cc3s2)cc1` (stereo not shown) [TS3124], the brain concentration [4] is reported as 4%.
For `O=c1cc(-c2ccccc2)oc2cc(O)cc(O)c12` [Chrysin], the “Effects on Aβ fibril formation” value [1] is listed as “Enhancing”.
In the case of `O=c1c(O)c(-c2ccc(O)c(O)c2)oc2cc(O)cc(O)c12` [Quercetin], the “Effects on Aβ fibril formation” value [1] is given as “Inhibitory”.
For `O=c1c(O)c(-c2cccc(O)c2)oc2cc(O)ccc12` [3,3′,7-Trihydroxyflavone], the “Effects on Aβ fibril formation” value [1] is given as “Enhancing”.
In the case of `O=c1cc(-c2ccc(O)c(O)c2)oc2cc(O)ccc12` [3′,4′,7-Trihydroxyflavone], the “Effects on Aβ fibril formation” value [1] is given as “Inhibitory”.
For `O=c1c(O)c(-c2ccc(O)cc2)oc2cc(O)cc(O)c12` [Kaempferol], the “Effects on Aβ fibril formation” value [1] is listed as “Enhancing”.
For `O=C([O-])c1cc(=O)c2c(OCC(O)COc3cccc4oc(C(=O)[O-])cc(=O)c34)cccc2o1.[Na+].[Na+]` [cromolyn sodium, Disodium cromoglicate], the “incubation time required for 50% polymerization” value ([5]; Aβ 50 μM, equimolar drug, 14 minutes in the absence of drug) was 75 min, the “inhibition of the rate of Aβ polymerization” value ([5]; equimolar concentrations with Aβ) was 7 fold and the “Aβ aggregation (thioflavin T fluorescence)” value ([6]; Aβ peptide 5 μM, 10 μM thioflavin T, drug at nanomolar concentration, FIG. 6) was “inhibition of Aβ aggregation”. The “Aβ amyloid peptide polymerization into oligomers and higher order aggregates” value ([6]; four separate in vitro assays, nanomolar concentrations) was “effectively inhibits”, the “inhaled drug-delivered-dose absorbed into the bloodstream” value [7] was 10-15% and the dinitrophenyl-albumin-induced plaque expansion [8] was “prevented”. For the same molecule, the “release of interleukin-6 (IL-6)” value [9] was “partially inhibited”.
In the case of `O=c1c(O)c(-c2ccc(O)cc2)oc2cc(O)ccc12` [5-Deoxykaempferol], the “Effects on Aβ fibril formation” value [1] is listed as “Enhancing”.
For `O=c1c(O)c(-c2cc(O)c(O)c(O)c2)oc2cc(O)cc(O)c12` [Myricetin], the “Effects on Aβ fibril formation” value [1] is given as “Inhibitory”.
